Measurements reported in PMC4580457, “Use of Labelled tLyP-1 as a Novel Ligand Targeting the NRP Receptor to Image Glioma” (PLoS ONE, 2015).
Peptide text beside a SMILES is read from it. * marks the point of attachment. 5FAM = O=C1OC2(c3ccc(O)cc3Oc3cc(O)ccc32)c2ccc(C(=O)*)cc21

Experiment: in vivo
Parameters: species or system BALB/C athymic nude mice
Conditions: BALB/C athymic nude, mouse, iv, 150 uL of 1 mM, T/NT ratio
Method: Mice with U87MG tumor xenografts (n = 10) were randomly divided into an experimental group (n = 5) and control group (n = 5). The mice in the experimental group were intravenously injected with 150 μL of FAM-tLyP-1 (1mM), while the control group received 150 μL of FAM-labeled control peptide (1mM). The mice were sacrificed after 1 h by cervical dislocation under ketamine/xylazine anesthesia. The tumor and normal organs were then removed, washed with PBS at least three times, and then collected for imaging ex vivo. FAM-tLyP-1 uptake in the tumor and normal organs was described by a blinded observer under blue light with an exposure time of 60 s, using the Kodak in-Vivo Imaging System F (Kodak, American), and processed for fluorescence intensity analysis. The fluorescence intensity was analyzed visually based on the brightness of the green light indicating uptake of FAM-tLyP-1.
The intensity of FAM-tLyP-1 uptake in the tumor and normal organs was analyzed blindly using the Kodak MI analysis software (Kodak, American). The fluorescence intensity was analyzed visually from high to low levels based on a color scale of white, red, yellow, green, blue, and black. Regions of interest (ROIs) were drawn around the border of the tumor and normal organs on the fluorescence images and the average fluorescence intensity was measured. The tumor/non-tumor ratios (T/NT ratios) were calculated by dividing the fluorescence intensity in the tumor by that of the normal organs.

Row | Compound | tissue to tissue ratio at 1 h (T/brain) | tissue to tissue ratio at 1 h (T/heart) | tissue to tissue ratio at 1 h (T/intestine) | tissue to tissue ratio at 1 h (T/kidney) | tissue to tissue ratio at 1 h (T/liver) | tissue to tissue ratio at 1 h (T/lung) | tissue to tissue ratio at 1 h (T/muscle) | tissue to tissue ratio at 1 h (T/spleen)
1 | C[C@@H](O)[C@H](NC(=O)[C@H](CCCNC(=N)N)NC(=O)[C@H](CCCCNC(=O)c1ccc2c(c1)C(=O)OC21c2ccc(O)cc2Oc2cc(O)ccc21)NC(=O)[C@H](CC(N)=O)NC(=O)CNC(=O)[C@@H](N)CS)C(=O)N[C@@H](CCCNC(=N)N)C(=O)O [FAM-tLyP-1] (H-CGNK(5FAM)RTR-OH) | 3.44 ± 0.83 | 4.61 ± 1 | 0.84 ± 0.35 | 0.88 ± 0.74 | 2.34 ± 0.36 | 3.29 ± 0.79 | 2.87 ± 0.45 | –
2 | CSCC[C@H](N)C(=O)N[C@@H](C)C(=O)N[C@@H](CCC(N)=O)C(=O)N[C@@H](CCCCNC(=O)c1ccc2c(c1)C(=O)OC21c2ccc(O)cc2Oc2cc(O)ccc21)C(=O)N[C@H](C(=O)N[C@@H](CO)C(=O)N[C@@H](Cc1c[nH]cn1)C(=O)O)[C@@H](C)O [FAM-control peptide] (H-MAQK(5FAM)TSH-OH) | 1.32 ± 0.15 | 1.94 ± 0.26 | 0.87 ± 0.3 | 0.57 ± 0.51 | 1.28 ± 0.25 | 1.4 ± 0.1 | 1.31 ± 0.14 | 1.75 ± 0.17
